Results from paper PMC12756739 (ACS Omega, 2025).

Experiments:
EGFR enzyme = EGFR enzyme (Homo sapiens, UniProt P00533); experiment: EGFR kinase inhibition assay; type: biochemical
NIH3T3 cells = experiment: MTT cytotoxicity test, NIH3T3 cell line; type: cell-based; conditions: Mus musculus, NIH3T3, read-out: IC50 (μM) NIH3T3
COX-2 enzyme = target: T1, COX-2 enzyme (Homo sapiens, UniProt P35354); experiment: biochemical
T1 sequence (P35354 18-604): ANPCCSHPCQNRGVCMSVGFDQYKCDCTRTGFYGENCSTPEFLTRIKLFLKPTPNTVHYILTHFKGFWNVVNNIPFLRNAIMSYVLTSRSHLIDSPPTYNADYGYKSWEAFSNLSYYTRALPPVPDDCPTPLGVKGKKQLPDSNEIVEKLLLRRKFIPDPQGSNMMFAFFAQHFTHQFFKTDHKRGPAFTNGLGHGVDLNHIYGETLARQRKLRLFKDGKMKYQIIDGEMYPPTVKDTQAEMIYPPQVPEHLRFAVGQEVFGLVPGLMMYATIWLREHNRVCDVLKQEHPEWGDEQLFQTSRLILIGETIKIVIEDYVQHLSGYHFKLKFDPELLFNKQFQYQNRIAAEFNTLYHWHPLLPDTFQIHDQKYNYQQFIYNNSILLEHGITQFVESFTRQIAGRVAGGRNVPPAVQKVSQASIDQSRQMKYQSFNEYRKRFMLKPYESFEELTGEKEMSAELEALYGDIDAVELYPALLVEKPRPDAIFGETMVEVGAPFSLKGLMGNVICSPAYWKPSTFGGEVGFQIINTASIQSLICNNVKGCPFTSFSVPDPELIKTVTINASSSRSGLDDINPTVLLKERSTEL

MCF-7 cell line [1] = experiment: MTT cytotoxicity test, MCF-7 cell line; type: cell-based; conditions: Homo sapiens, MCF7, read-out: IC50 (μM) MCF-7
MCF-7 cell line [2] = experiment: Flow cytometric apoptosis/necrosis analysis; type: cell-based; conditions: at the IC50 concentration
A549 cell line = experiment: MTT cytotoxicity test, A549 cell line; type: cell-based; conditions: Homo sapiens, A549, read-out: IC50 (μM) A549
EGFR^WT = conditions: ref Fadaly et al.; cited from earlier work
COX-2 = conditions: ref Fadaly et al.; cited from earlier work
EGFR^L858R/T790M = conditions: ref Fadaly et al.; cited from earlier work

EGFR enzyme, sequence (P00533 25-1210): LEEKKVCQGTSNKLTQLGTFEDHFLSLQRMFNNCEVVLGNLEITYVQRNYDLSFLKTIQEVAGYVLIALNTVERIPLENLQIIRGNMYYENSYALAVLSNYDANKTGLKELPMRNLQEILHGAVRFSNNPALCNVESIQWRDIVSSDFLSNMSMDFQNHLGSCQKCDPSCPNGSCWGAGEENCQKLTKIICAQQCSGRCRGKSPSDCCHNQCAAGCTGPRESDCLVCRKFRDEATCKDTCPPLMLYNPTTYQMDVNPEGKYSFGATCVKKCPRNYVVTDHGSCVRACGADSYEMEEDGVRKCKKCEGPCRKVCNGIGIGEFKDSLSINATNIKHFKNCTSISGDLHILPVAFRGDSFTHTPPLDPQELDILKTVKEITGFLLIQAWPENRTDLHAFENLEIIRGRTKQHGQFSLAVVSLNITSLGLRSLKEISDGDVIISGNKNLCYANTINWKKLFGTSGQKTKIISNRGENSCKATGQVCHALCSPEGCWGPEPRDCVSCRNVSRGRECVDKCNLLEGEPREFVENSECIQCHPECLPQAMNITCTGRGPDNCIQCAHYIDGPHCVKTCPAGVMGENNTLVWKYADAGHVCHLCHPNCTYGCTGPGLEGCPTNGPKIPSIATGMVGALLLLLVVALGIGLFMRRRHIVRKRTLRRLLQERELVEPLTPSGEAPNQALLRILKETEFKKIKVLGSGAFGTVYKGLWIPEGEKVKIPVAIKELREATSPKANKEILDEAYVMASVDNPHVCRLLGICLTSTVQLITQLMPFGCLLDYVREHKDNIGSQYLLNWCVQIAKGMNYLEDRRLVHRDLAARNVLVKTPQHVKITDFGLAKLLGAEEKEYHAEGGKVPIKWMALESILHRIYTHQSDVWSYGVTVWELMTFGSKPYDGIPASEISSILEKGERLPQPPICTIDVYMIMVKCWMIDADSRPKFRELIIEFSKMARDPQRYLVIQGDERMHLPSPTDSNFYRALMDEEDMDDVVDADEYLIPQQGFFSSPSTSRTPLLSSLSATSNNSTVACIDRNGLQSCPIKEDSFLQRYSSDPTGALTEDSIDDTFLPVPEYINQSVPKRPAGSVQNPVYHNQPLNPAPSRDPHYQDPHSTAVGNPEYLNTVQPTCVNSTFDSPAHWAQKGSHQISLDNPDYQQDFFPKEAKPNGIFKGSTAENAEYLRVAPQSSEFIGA

Structure (SMILES)	IC50 (EGFR enzyme) [nM]	IC50 (NIH3T3 cells) [µM]	IC50 (COX-2 enzyme) [nM]	IC50 (MCF-7 cell line [1]) [µM]	% early apoptosis (MCF-7 cell line [2]; lower right quadrant) [%]	% necrosis (MCF-7 cell line [2]; upper left quadrant) [%]	% late apoptosis (MCF-7 cell line [2]; upper right quadrant) [%]	IC50 (A549 cell line) [µM]	activity against EGFR^WT (EGFR^WT) [µM]	activity against COX-2 (COX-2) [µM]	activity against EGFR^L858R/T790M (EGFR^L858R/T790M) [µM]
NS(=O)(=O)c1ccc(NC(=O)CSc2nnc(NC(=O)c3ccc(Cl)cc3)s2)cc1 [3j, 4-Chloro-N-(5-((2-oxo-2-((4-sulfamoylphenyl)amino)ethyl)thio)-1,3,4-thiadiazol-2-yl)benzamide]	20 ± 0.8	85.6 ± 3.16	192 ± 8	2.38 ± 0.108	20.20	4.08	15.56	20.7 ± 0.984			
CS(=O)(=O)c1ccc(-n2cc(/C=N/c3ccc(NC(=O)CO[N+](=O)[O-])cc3)c(-c3ccc(Br)cc3)n2)cc1 [(E)-2-((4-(((3-(4-bromophenyl)-1-(4-(methylsulfonyl)phenyl)-1H-pyrazol-4-yl)methylene)amino)phenyl)amino)-2-oxoethyl nitrate]									0.452	0.437	0.031
